Assay results reported in US20100173278A1, “MICROCAPSULES CONTAINING MAMMALS' SPERMATOZOIDS, INSEMINATION DOSE CONTAINING SAME AND METHOD FOR OBTAINING SAME” (Cooperative Bretonne D'Insemination Artificielle Porcine, priority 2007, published 2010).
Like-named read-outs stand apart in the source and are kept apart here.

Test system: semen
Test: Biocompatibility with semen (non-spermicidal; mobility and viability of the spermatozoa)
Type: cell-based, swine
Source text: A summary of the tests conducted is given in the table at the end of the description.

Substance	effect on the mobility and viability of the spermatozoa	spermicidal role with respect to semen	Bio-compatibility (surfactant concentration 0.5%, matrix Suppocire DM)	Bio-compatibility (surfactant concentration 1%, matrix Gelucire 43/01)	Bio-compatibility (surfactant concentration 1%, matrix Suppocire DM)	Bio-compatibility
sorbitan monolaurate [Span 20]	lack of any harmful effect	non-spermicidal	Yes	Yes	Yes	
Tween 85						Yes
